From patent US8536354B2, “Steroidal ligands and their use in gene switch modulation” (Intrexon Corporation, priority 2008, dated 2013)
Entries after “also recorded” stand apart in the source; their conditions may differ. Where two headings read alike, the source gives them in different places.

What was measured:
[1] = test system: EcRs (lepidopteran and non-lepidopteran); assay: Two-hybrid gene switch assays, statements across the set of ten EcRs in NIH3T3 cells
[2] = target: T1, wild-type Choristoneura fumiferana EcR (CfEcR-DEF) (Choristoneura fumiferana, UniProt O77255); assay: Two-hybrid gene switch assay, wild-type CfEcR-DEF (GAL4-EcR / VP16-RXR-USP chimera, luciferase) in NIH3T3 cells; conditions: for Emax: NIH3T3, 48 h
T1 sequence (O77255 219-541): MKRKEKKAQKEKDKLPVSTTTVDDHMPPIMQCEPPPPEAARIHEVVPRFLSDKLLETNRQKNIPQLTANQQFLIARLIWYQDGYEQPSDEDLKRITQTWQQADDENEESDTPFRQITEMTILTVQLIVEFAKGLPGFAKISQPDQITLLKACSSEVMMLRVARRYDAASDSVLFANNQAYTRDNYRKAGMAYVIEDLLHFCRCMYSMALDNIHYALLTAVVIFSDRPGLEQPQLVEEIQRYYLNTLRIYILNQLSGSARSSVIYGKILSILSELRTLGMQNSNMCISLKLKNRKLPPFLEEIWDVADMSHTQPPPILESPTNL
T1 sequence (P28702 299-449 partner): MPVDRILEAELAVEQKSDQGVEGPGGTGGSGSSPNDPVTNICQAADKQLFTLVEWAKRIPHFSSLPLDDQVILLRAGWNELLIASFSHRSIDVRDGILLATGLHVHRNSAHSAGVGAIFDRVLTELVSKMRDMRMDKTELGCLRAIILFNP

[3] = target: T2, wild-type Drosophila melanogaster EcR (DmEcR-DEF) (Drosophila melanogaster, UniProt P34021); assay: Two-hybrid gene switch assay, DmEcR-DEF in NIH3T3 cells; conditions: for rel max FI (20E), DM: max fold induction at any concentration relative to 20E; for rel max FI (PoA), DM: max fold induction at any concentration relative to PoA
T2 sequence (P34021 342-878 limits assumed): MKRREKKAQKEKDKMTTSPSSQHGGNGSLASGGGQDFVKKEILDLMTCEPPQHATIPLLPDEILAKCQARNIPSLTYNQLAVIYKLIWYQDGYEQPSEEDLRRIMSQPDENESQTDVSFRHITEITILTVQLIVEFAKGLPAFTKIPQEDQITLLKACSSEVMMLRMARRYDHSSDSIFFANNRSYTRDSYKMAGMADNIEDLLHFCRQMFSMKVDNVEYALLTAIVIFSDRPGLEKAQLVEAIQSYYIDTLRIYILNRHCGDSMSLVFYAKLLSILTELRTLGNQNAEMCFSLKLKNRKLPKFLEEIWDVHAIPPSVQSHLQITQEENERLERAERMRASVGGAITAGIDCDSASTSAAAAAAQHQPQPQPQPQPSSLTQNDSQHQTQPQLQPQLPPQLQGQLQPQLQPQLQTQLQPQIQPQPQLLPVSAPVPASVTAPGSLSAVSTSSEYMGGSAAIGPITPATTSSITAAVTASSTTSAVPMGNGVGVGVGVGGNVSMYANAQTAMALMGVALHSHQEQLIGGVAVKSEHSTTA

[4] = target: T3, wild-type Aedes aegypti EcR (AaEcR-DEF) (Aedes aegypti, UniProt P49880); assay: Two-hybrid gene switch assay, AaEcR-DEF in NIH3T3 cells; conditions: AaEcR; for rel max FI (20E), AA: max fold induction at any concentration relative to 20E; for rel max FI (PoA), AA: max fold induction at any concentration relative to PoA; for EC50: NIH3T3 cells, luciferase, 48 h, ligand 0.01-33 μM
T3 sequence (P49880 405-776 limits assumed): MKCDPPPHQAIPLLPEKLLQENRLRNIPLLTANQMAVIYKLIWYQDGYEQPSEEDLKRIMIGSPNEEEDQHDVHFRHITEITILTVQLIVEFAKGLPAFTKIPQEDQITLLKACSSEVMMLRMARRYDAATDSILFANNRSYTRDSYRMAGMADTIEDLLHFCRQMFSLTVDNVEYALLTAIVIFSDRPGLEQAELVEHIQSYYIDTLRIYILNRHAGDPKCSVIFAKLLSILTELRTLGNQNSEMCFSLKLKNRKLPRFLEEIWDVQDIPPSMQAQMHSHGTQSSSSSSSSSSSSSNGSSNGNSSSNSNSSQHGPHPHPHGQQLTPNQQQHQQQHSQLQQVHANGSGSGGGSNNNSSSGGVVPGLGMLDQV

[5] = target: T4, Manduca sexta EcR (MsEcR) (Manduca sexta, UniProt P49883); assay: Two-hybrid gene switch assay, MsEcR-CDEF in NIH3T3 cells; conditions: for rel max FI (20E), MS: max fold induction at any concentration relative to 20E; for rel max FI (PoA), MS: max fold induction at any concentration relative to PoA
T4 sequence (P49883 293-531 limits assumed): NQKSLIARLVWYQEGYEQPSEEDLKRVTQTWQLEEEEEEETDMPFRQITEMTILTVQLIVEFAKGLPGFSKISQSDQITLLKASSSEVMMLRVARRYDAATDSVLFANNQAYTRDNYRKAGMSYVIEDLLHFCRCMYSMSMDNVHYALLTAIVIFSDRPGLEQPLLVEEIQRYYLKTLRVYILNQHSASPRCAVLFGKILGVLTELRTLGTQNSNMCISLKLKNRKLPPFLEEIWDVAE

[6] = test system: D. melanogaster BII cell line (expresses the ecdysteroid receptor complex EcR-USP); assay: Drosophila melanogaster BII cell line bioassay (turbidometric; agonist and antagonist versions); conditions: Drosophila BII cell line, Example Two

Structure (SMILES)	selectivity / relative potency between EcRs [1]	EC50 [2] [µM]	Emax ([2]; read-out: rel max FI (20E), CF) [%]	Emax ([2]; read-out: rel max FI (PoA), CF) [%]	EC50 [3] [µM]	rel max FI (20E), DM ([3]; DmEcR)	rel max FI (PoA), DM ([3]; DmEcR)	rel max FI (20E), AA [4]	rel max FI (PoA), AA [4]	EC50 ([4]; EC50 (μM), AA) [µM]	EC50 [5] [µM]	rel max FI (20E), MS ([5]; MsEcR)	rel max FI (PoA), MS ([5]; MsEcR)	also measured
C[C@@H]1C(=O)O[C@H](C)[C@H]1C[C@@H](O)[C@](C)(O)[C@H]1CC[C@@]2(O)C3=CC(=O)[C@@H]4C[C@@H](O)[C@@H](O)C[C@]4(C)[C@H]3CC[C@]12C [cyasterone]	somewhat selective for lepidopteran EcRs													
CC(C)CC[C@@H](O)[C@](C)(O)[C@H]1CC[C@@]2(O)C3=CC(=O)[C@@H]4C[C@@H](O)[C@@H](O)C[C@]4(C)[C@H]3[C@H](O)C[C@]12C [ajugasterone C]	higher in non-lepidopteran species													
CO[C@H]1C[C@@]2(C)[C@@H](C[C@H]1O)C(=O)C=C1[C@@H]2CC[C@]2(C)[C@@H]([C@@](C)(O)[C@H](O)CCC(C)(C)O)CC[C@@]12O [20E-2-methyl ether]		> 33	14	0	> 33	0.00	0.00	0.87	0.30	~10	~20	0.16	0.10	
CO[C@@H]1C[C@H]2C(=O)C=C3[C@H](CC[C@]4(C)[C@@H]([C@@](C)(O)[C@H](O)CCC(C)(C)O)CC[C@@]34O)[C@@]2(C)C[C@@H]1O [20E-3-methyl ether]		> 33	115	1	> 33	0.02	0.03	1.75	0.60	~10	~10	1.15	0.73	
CO[C@H](CCC(C)(C)O)[C@](C)(O)C1CC[C@@]2(O)C3=CC(=O)C4C[C@@H](O)[C@@H](O)CC4(C)C3CCC12C (some centres unmarked) [20E-22-methyl ether]		> 33	7	0	~4	0.87	1.07	2.52	0.86	1.04	~10	1.29	0.81	
CC(C)(O)C(CCC(C)(O)C1CCC2(O)C3=CC(=O)C4CC(O)C(O)CC4(C)C3CCC12C)OC(=O)c1ccc[nH]1 (centres unmarked) [canescensterone]	selective for non-lepidopteran EcRs; also recorded: BaEcR>E274V/V390I/Y410E mutant-CfEcR													EC50 [6]: 0.00053 µM
CO[C@@H]1C[C@H]2C(=O)C=C3[C@H](CC[C@]4(C)[C@@H]([C@@](C)(O)[C@@H](CCC(C)(C)O)OC)CC[C@@]34O)[C@@]2(C)C[C@@H]1O [20E-3,22-dimethyl ether]		> 33	46	0	~20	0.07	0.09	2.32	0.79	7.15	~10	0.82	0.52	
COC1C[C@H]2C(=O)C=C3[C@H](CC[C@]4(C)[C@@H]([C@@](C)(O)C(CCC(C)(C)O)OC)CC[C@@]34OC)[C@@]2(C)CC1OC (some centres unmarked) [20E-2,3,14,22-tetramethyl ether]						0.01	0.02	0.07	0.02			0.00	0.00	EC50 ([2]; read-out: EC50 (μM), CF, wild-type CfEcR, NIH3T3 cells, luciferase, 48 h, ligand 0.01-33 μM): > 33 µM; rel max FI (20E), CF ([2]; wild-type CfEcR, max fold induction at any concentration relative to 20E): 0.46; rel max FI (PoA), CF ([2]; wild-type CfEcR, max fold induction at any concentration relative to PoA): 0.00; EC50 ([3]; read-out: EC50 (μM), DM, DmEcR, NIH3T3 cells, luciferase, 48 h, ligand 0.01-33 μM): > 33 µM; EC50 ([4]; read-out: EC50 (μM), AA): > 33 µM; EC50 ([5]; read-out: EC50 (μM), MS, MsEcR, NIH3T3 cells, luciferase, 48 h, ligand 0.01-33 μM): > 33 µM
CO[C@H]1C[C@@]2(C)[C@@H](C[C@H]1O)C(=O)C=C1[C@@H]2CC[C@]2(C)[C@@H]([C@@](C)(O)[C@@H](CCC(C)(C)O)OC)CC[C@@]12O [20E-2,22-dimethyl ether]		> 33	63	0		0.12	0.15	2.34	0.80	~8	~20	0.15	0.09	EC50 ([3]; EC50 (μM), DM, DmEcR, NIH3T3 cells, luciferase, 48 h, ligand 0.01-33 μM): ~20 µM
CC(C)=CC[C@@H](O)[C@](C)(O)[C@H]1CC[C@@]2(O)C3=CC(=O)[C@@H]4C[C@@H](O)[C@@H](O)C[C@]4(C)[C@H]3CC[C@]12C [stachysterone C]														activity across the tested set of EcRs ([1]; FIGS. 13 and 14): active
